Assay results from patent US12233089B2, “Foods to promote better health and/or to maintain homeostasis and method of production thereof” (Vector Vitale IP LLC, priority 2021, dated 2025).
Where two headings read alike, the source gives them in different places. Marks after values point to notes of the source that are not given here.

Legend:
[1] = test system: P. aeruginosa ATCC 27853; assay: MIC (bacteriostatic activity), P. aeruginosa; type: cell-based; details: for MIC: Table 5
From the text: (§1) The conditions of the experiment were like those for Zn-64 compound.

[2] = test system: S. aureus ATCC 25923; assay: Minimum bactericidal concentration (MBC), S. aureus; type: cell-based
Description: (§2) To evaluate the bactericidal action of the antibacterial composition based on light isotope ^64Zne the minimum bactericidal concentration (MBC) was determined by plating out 0.1 ml of the contents of each tube containing the antibacterial composition on Mueller-Hinton medium. The incubation was at 37° C. for 24 h.
(§3) The MBC of the test samples was determined as the lowest concentration at which there was no growth on Mueller-Hinton agar medium.
as §1

[3] = test system: P. aeruginosa ATCC 27853; assay: Minimum bactericidal concentration (MBC), P. aeruginosa; type: cell-based
Description: as §2, §3, §1

[4] = test system: E. coli ATCC 25922; assay: Minimum bactericidal concentration (MBC), E. coli; type: cell-based
Description: as §2, §3, §1

[5] = test system: RNA and DNA synthesis; assay: Inhibition of RNA and DNA synthesis; type: cell-based
[6] = test system: S. aureus ATCC 25923; assay: MIC (bacteriostatic activity), S. aureus; type: cell-based; details: Table 5
From the text: as §1

[7] = test system: E. coli ATCC 25922; assay: MIC (bacteriostatic activity), E. coli; type: cell-based; details: Table 5
From the text: as §1

[8] = test system: MM-4 cells; assay: Immunocytochemistry of Bcl-2, Bax and p53 expression in MM-4 cells; type: cell-based, mouse
[9] = test system: rat models of Aβ1-40-induced AD; assay: Rat model of Alzheimer's disease induced by infusion of Aβ 1-40; type: in vivo, rats
From the text: The Effect of ^64Zn-Asp on Cognitive Symptomatology in Rats with Different Models of Alzheimer's Disease Induced by Infusion of a Mix of Beta-Amyloid Peptides

[10] = test system: MMP-9; assay: Activities of latent and active forms of metalloproteinase 9 in MM-4 cells; details: 16.69 μg/ml
[11] = test system: pro-inflammatory (IL-1, IL-6, IL-12, IFN-γ) and anti-inflammatory (IL-4, IL-10, TGF) cytokines; details: adipose tissue, M ± m, n = 10
From the text: Given the above, the next phase was to find out whether the administration of Zn-64 stable isotope in aspartate form influences the cytokine profile in obese animals.

[12] = Glucose and pancreatic islets in vivo, model not given (section on obesity and type 1 & 2 diabetes)
[13] = test system: rats with LPS-induced Parkinson's disease; assay: LPS-induced Parkinson's disease in rats; type: in vivo
From the text: Effects of ^64Zn-KLS-1 on Local and Systemic Immune Reactivity, Behavioural and Motor Functions in Rats with LPS-Induced Experimental Parkinsonism

[14] = test system: animals on a high-fat diet (DIO); assay: Diet induced obesity model (animals on a high-fat diet); type: in vivo, rats
From the text: The preclinical study of the effects of Zn-64 Asp on key pathogenetic links in the development and progression of obesity in diet-induced obesity models provides strong ground for efficient use of Zn-64 Asp as therapeutic agent in the treatment of overweight and obese patients.

[15] = test system: pro-inflammatory (IL-1, IL-6, IL-12, IFN-γ) and anti-inflammatory (IL-4, IL-10, TGF) cytokines; assay: Cytokine profile in the serum of experimental animals; type: in vivo, rats; details: M ± m, n = 10
From the text: As mentioned above, the pathogenesis of obesity is accompanied by a systemic chronic inflammatory process, the intensity of which can be assessed by the serum levels of pro- and anti-inflammatory cytokines.

[16] = test system: Epstein-Barr virus; assay: Cytotoxicity and antiviral activity against Epstein-Barr virus
[17] = test system: MMP-2; assay: Activities of latent and active forms of metalloproteinase 2 in MM-4 cells
[18] = test system: MM-4 mouse melanoma cells; assay: In vitro analysis of viability of MM-4 mouse melanoma cells; type: cell-based
From the text: A second study was done on mouse model of lymphocytic leukemia, strain of L1210 leukemia cells, mouse melanoma model (MM-4 cell line derived from mouse melanoma cells of strain B16). Typical results are below.

[19] = test system: type 1 diabetes; assay: Development of type 1 diabetes in vivo
[20] = animals with AD, therapeutic administration
[21] = LPS-induced Parkinson's disease

In the case of `NC(CCC(=O)[O-])C(=O)[O-].[64Zn+2]` (centres unmarked) [^64Zne glutamate], the “bacteriostatic activity (in words)” value [1] is reported as “best results”, the MBC ([2]; 37° C. 24 h, Table 4) is reported as 0.046* mcg ^64Zne/ml and the MBC ([3]; 37° C. 24 h, Table 4) is reported as over 750 mcg ^64Zne/ml. For the same compound, the MBC ([4]; 37° C. 24 h, Table 4) was 0.37* mcg ^64Zne/ml and the “RNA and DNA synthesis” value [5] was “Inhibition”.

With `O=S(=O)([O-])[O-].[64Zn+2]` [^64Zne sulfate] the MIC [1] was 46.875 zinc mcg/ml, the MIC [6] was 0.366 zinc mcg/ml and the MBC ([2]; 37° C. 24 h, Table 4) was 0.37* mcg ^64Zne/ml. For the same compound, the MBC ([2]; Table 6) was 0.3662 mcg zinc/ml, the MBC ([3]; 37° C. 24 h, Table 4) was 375 mcg ^64Zne/ml and the MBC ([3]; Table 6) was 375 mcg zinc/ml. For the same compound, the MBC ([4]; 37° C. 24 h, Table 4) was 1.46* mcg ^64Zne/ml, the MBC ([4]; Table 6) was 1.4648 mcg zinc/ml and the MIC [7] was 0.0916 zinc mcg/ml.

With `NC(CC(=O)[O-])C(=O)[O-].[64Zn+2]` (centres unmarked) [Zn64 Aspartate, ^64Zne aspartate] the “decrease in the expression of Bcl-2 vs. control” value ([8]; 16.69 μg/ml) was 69.5%, the “expression of pro-apoptotic proteins Bax and p53” value ([8]; 16.69 μg/ml) was “did not have any effect” and the “expression level of p53 (Y-5 clone)” value ([8]; 25.03 μg/ml) was “does not influence”. For the same compound, the “increased expression level of Bax compared with the control” value ([8]; 25.03 μg/ml) was 8.9 times, the “increased expression level of p53 (DO-7 clone) compared with the control” value ([8]; 25.03 μg/ml) was 9.5 times and the “expression of anti-apoptotic protein Bcl-2” value ([8]; concentration not given) was “does not have any effect”. The cognitive function ([9]; AD models) was “significantly improved”, the “body weight, water and feed intake” value ([9]; AD rats treated for 10 days) was “restored” and the neuroinflammation ([9]; Aβ1-40-induced AD) was “almost complete resolution”. The “staining intensity of TH-immuno-positive cells” value ([9]; Aβ1-40 AD rats, hippocampal dopaminergic neurons) was “increased”, the “absolute number of circulating leukocytes” value [9, 20] was “complete normalization” and the “neutrophilic lymphocytic coefficient (NLC)” value [9, 20] was “complete normalization”. The “bacteriostatic activity (in words)” value [1] was “best results”, the “decrease in the activity of active MMP-9 compared with the control” value [10] was 23.8% and the “decrease in the activity of latent pro-MMP-9 compared with the control” value [10] was 61.2%. For the same compound, the IFN-γ level ([11]; control animals (C)) was 5.0 ± 0.8^ RU/mg protein, the IL-1 level ([11]; control animals (C)) was 4.9 ± 1.7^ RU/mg protein and the IL-4 level ([11]; control animals (C)) was 5.0 ± 0.4^ RU/mg protein. For the same compound, the IL-6 level ([11]; control animals (C)) was 5.4 ± 0.3^ RU/mg protein, the IL-10 level ([11]; control animals (C)) was 4.9 ± 0.2^ RU/mg protein and the IL-12 level ([11]; control animals (C)) was 1.0 ± 0.03 RU/mg protein. The TGF level ([11]; control animals (C)) was 5.1 ± 0.6^ RU/mg protein, the IFN-γ level ([11]; diet induced obesity (DIO)) was 4.9 ± 0.8 RU/mg protein and the IL-1 level ([11]; diet induced obesity (DIO)) was 5.8 ± 1.8 RU/mg protein. It also gave an IL-4 level ([11]; diet induced obesity (DIO)) of 5.1 ± 1.2 RU/mg protein, an IL-6 level ([11]; diet induced obesity (DIO)) of 6.1 ± 0.7 RU/mg protein and an IL-10 level ([11]; diet induced obesity (DIO)) of 5.8 ± 0.8 RU/mg protein. For the same compound, the IL-12 level ([11]; diet induced obesity (DIO)) was 1.99 ± 0.01 RU/mg protein, the TGF level ([11]; diet induced obesity (DIO)) was 5.2 ± 0.9 RU/mg protein and the MBC ([2]; 37° C. 24 h, Table 4) was 0.023* mcg ^64Zne/ml. The “glucose concentration compared to the control group” value [12] was “drop”, the “increase of insulin producing pancreatic islets area” value [12] was “more than 100%” and the MBC ([3]; 37° C. 24 h, Table 4) was over 750 mcg ^64Zne/ml. The MBC ([4]; 37° C. 24 h, Table 4) was 0.73* mcg ^64Zne/ml, the dopaminergic neuron loss [13, 21] was “Prevention” and the harmful side effects [13, 21] was “absence”. For the same compound, the “local and systemic inflammation” value [13, 21] was “Inhibition”, the “metabolic activity of microglia” value [13, 21] was “increase” and the “number of dopaminergic neurons in the substantia nigra” value ([13]; LPS-induced Parkinson's disease, rats) was “virtually full restoration”. The systemic inflammatory responses ([13]; therapeutic administration, LPS-induced parkinsonism) was “reduces”, the “fatty degeneration (exocrine part of the pancreas)” value ([14]; DIO group) was “Disappearance” and the “divalent metal ions (zinc, copper, manganese) in muscles, kidneys and liver” value ([14]; animal models of obesity) was “restoration of their normal physiological levels”. For the same compound, the “activity of antioxidant enzymes (superoxide dismutase and catalase)” value ([14]; animals on a high fat diet) was “increased activity”, the “levels of lipid peroxidation products and protein oxidative modification” value ([14]; animals on a high fat diet) was “decrease” and the “central and peripheral serotonin levels compared to untreated animal models of obesity” value ([14]; animals on a high-fat diet) was “restoration”. The “decrease of the area of hepatocytes compared to the group with obesity” value ([14]; animals on a high-fat diet) was 41%, the “increase of the cross-sectional surface area of the islets of Langerhans compared with the obesity group” value ([14]; animals on a high-fat diet) was 43% and the lipid metabolism ([14]; animals on a high-fat diet) was “Improvement”. The “serotonin levels in the brain” value ([14]; animals on a high-fat diet) was “An increase”, the “weight and the amount of food consumed compared to the untreated animals” value ([14]; animals on a high-fat diet) was “Reduction” and the IFN-γ level ([15]; control animals (C)) was 4.6 ± 0.6 RU/mg protein. For the same compound, the IL-1 level ([15]; control animals (C)) was 3.5 ± 0.7 RU/mg protein, the IL-4 level ([15]; control animals (C)) was 4.6 ± 0.8 RU/mg protein and the IL-6 level ([15]; control animals (C)) was 4.3 ± 0.2^ RU/mg protein. It also gave an IL-10 level ([15]; control animals (C)) of 4.1 ± 0.5 RU/mg protein, an IL-12 level ([15]; control animals (C)) of 0.3 ± 0.04 RU/mg protein and a TGF level ([15]; control animals (C)) of 4.1 ± 0.4 RU/mg protein. It also gave an IFN-γ level ([15]; diet induced obesity (DIO)) of 4.1 ± 1.2 RU/mg protein, an IL-1 level ([15]; diet induced obesity (DIO)) of 4.2 ± 0.4 RU/mg protein and an IL-4 level ([15]; diet induced obesity (DIO)) of 5.6 ± 1.6 RU/mg protein. For the same compound, the IL-6 level ([15]; diet induced obesity (DIO)) was 5.1 ± 0.4 RU/mg protein, the IL-10 level ([15]; diet induced obesity (DIO)) was 6.8 ± 1.1 # RU/mg protein and the IL-12 level ([15]; diet induced obesity (DIO)) was 2.4 ± 0.06 # RU/mg protein. For the same compound, the TGF level ([15]; diet induced obesity (DIO)) was 5.7 ± 0.3 # RU/mg protein, the “assessment of cytotoxicity and antiviral activity for anti-EBV infection” value [16] was “most promising” and the “decrease in the activity of active MMP-2 compared with the control” value ([17]; 16.69 μg/ml) was 66.8%. For the same compound, the “decrease in the activity of latent pro-MMP-2 compared with the control” value ([17]; 16.69 μg/ml) was 76.5%, the “suppression of the activity of MMP-2 compared with the control” value ([17]; 25.03 μg/ml) was 76% and the “suppressed proliferation of MM-4 cells compared with the control” value ([18]; 16.69 μg/ml) was 22.2%. For the same compound, the “reduction in the number of live melanoma cells compared with the control” value ([18]; 25.03 μg/ml) was 49.2%, the IC20 ([18]; MM-4 cells) was 16.69 µg/mL and the IC50 ([18]; MM-4 cells) was 25.03 µg/mL. The “decrease of glucose concentration” value [19] was 26%, the “decrease of glycosylated hemoglobin” value [19] was 30% and the “increase of serum insulin content” value [19] was 13%.

In the case of ^64Zne EDDS, the MIC [1] is reported as 5.86 zinc mcg/ml, the MIC [6] is reported as 0.73 zinc mcg/ml and the MBC ([2]; 37° C. 24 h, Table 4) is reported as 0.73* mcg ^64Zne/ml. It also gave an MBC ([2]; Table 6) of 0.7324 mcg zinc/ml, an MBC ([3]; 37° C. 24 h, Table 4) of 375 mcg ^64Zne/ml and an MBC ([3]; Table 6) of 375 mcg zinc/ml. The MBC ([4]; 37° C. 24 h, Table 4) was 2.93* mcg ^64Zne/ml, the MBC ([4]; Table 6) was 2.9296 mcg zinc/ml and the MIC [7] was 0.18 zinc mcg/ml.
